The record followed here is patent US20120004289A1, “ANNEXIN A11 AND ASSOCIATED GENES AS BIOMARKERS FOR CANCER” (The Johns Hopkins University, priority 2009, published 2012).

Common to all, as to assay type: cell-based, human
Assay [1] concerns 2008 cells. Nature of the assay: Real-time PCR validation of gene expression response to cisplatin. Particulars: both groups of cells. The protocol: 2008 cells were cultured in T150 flasks and transfected with A1 or negative control for 2 days. Cells were then collected, counted, and placed into 100-mm dishes. After incubating overnight, transfected cells were at 50% confluence and treated with 10 μM cisplatin (Sigma-Aldrich, St. Louis, Mo.) for 0, 8, 16, and 24 hours and then harvested in two portions for both total RNA and total protein extractions at every single time point. The optimized dose and duration of cisplatin treatment were experimentally determined in a previous study. Total RNA was isolated using TRIZOL reagent (Invitrogen) followed by RNeasy mini kit with DNase on-column digestion (Qiagen, Valencia, Calif.). RNA was quantified with NanoDrop ND-1000 followed by quality assessment with the 2100 Bioanalyzer (Agilent Technologies, Santa Clara, Calif.) according to manufacturer's protocol. […]. One microgram of total RNA was used to generate cDNA using the iScript cDNA Synthesis Kit (Bio-Rad, Hercules, Calif.). […] An experiment consisted of triplicate amplification reactions for each gene product being analyzed. […] The cycle threshold number (CT) was determined for each PCR using iQ5 Real-time PCR Detection System (Bio-Rad). […] Results are expressed as relative abundance of a specific mRNA between control and experimental sample (fold change, mean±SD).
A general note: Quantitative PCR measures a nucleic acid by following its amplification.

The test system of assay [2] is 2008 cells. Nature of the assay: Cell cytotoxicity assay of cisplatin (CCK-8) in siRNA- or control-transfected 2008 cells. Particulars: 72 hours. The protocol: (A and B) Cell proliferation assay. 2008 (A) or HEY (B) cells were treated with RNAi (A1) or -Ctr at the concentration of 40 nM for 3 days, respectively, and then plated at 3000 viable cells per well into 96-well plates. Every 24 hours, one plate was subjected to assay by CCK-8 kit. The data in each time point are averaged values from eight replicates (P<0.05). (C) Colony formation assay. 2008 cells were treated in the same way as above for 3 days and then plated at 3000 viable cells per well into six-well plates. Six days after plating, cells were fixed with methanol and stained with 0.1% crystal violet and colonies were counted. The experiment was performed in six replicates (P<0.01). (D) Cell cytotoxicity assay. 2008 cells were treated in same way as above for 3 days and then plated at 3000 viable cells per well into 96-well plates. After incubating overnight, cells were treated with various concentration of cisplatin diluted in 100 μl of conditioned medium (the final concentrations of cisplatin were 0, 1.56, 3.13, 6.25, 12.5, 25, 50, and 100 μg/ml). After continuous incubation for 72 hours, the plates were subjected to assay by CCK-8 kit. The experiment was performed in three replicates (P<0.01). Three independent experiments were performed for each assay. […] Cells were then collected, counted, and plated at 3000 viable cells per well into 96-well plates in a final volume of 100 μl. […]

The subject of assay [3] is 2008 cells. Nature of the assay: Time course of gene expression response to cisplatin, Agilent 44K whole genome oligo microarray. Particulars: 10 μM cisplatin. The method, then:
2008 cells were cultured in T150 flasks and transfected with A1 or negative control for 2 days. Cells were then collected, counted, and placed into 100-mm dishes. After incubating overnight, transfected cells were at 50% confluence and treated with 10 μM cisplatin (Sigma-Aldrich, St. Louis, Mo.) for 0, 8, 16, and 24 hours and then harvested in two portions for both total RNA and total protein extractions at every single time point. The optimized dose and duration of cisplatin treatment were experimentally determined in a previous study. Total RNA was isolated using TRIZOL reagent (Invitrogen) followed by RNeasy mini kit with DNase on-column digestion (Qiagen, Valencia, Calif.). RNA was quantified with NanoDrop ND-1000 followed by quality assessment with the 2100 Bioanalyzer (Agilent Technologies, Santa Clara, Calif.) according to manufacturer's protocol. Total RNA was labeled using Agilent Low RNA Input Fluorescent Linear Amplification Kit (Agilent) following the manufacturer's instruction with minor modifications. Briefly, 0.4 μg of RNA was reverse transcribed into cDNA by MMLV-RT using an oligo dT primer (System Biosciences, Mountain View, Calif.) that incorporated a T7 promoter sequence. The cDNA was then used as a template for in vitro transcription in the presence of T7 RNA polymerase and cyanine-3-labeled CTPs (Perkin Elmer Life Sciences, Boston, Mass.). RNA spike-in controls (Agilent) were added to RNA samples before amplification and labeling. The labeled cRNA was purified using the RNeasy mini kit (Qiagen). A total of 0.825 μg of each Cy3-labeled sample was used for hybridization on Agilent 4×44K whole human genome microarray at 65° C. for 17 hours in a hybridization oven with rotation. After hybridization, slides were washed and dried using stabilization and drying solution according to the Agilent microarray processing protocol. Slides were scanned using the Agilent Microarray Scanner controlled by Agilent Scan Control 7.0 software. Microarray data were extracted with Agilent Feature Extraction 9.5.3.1 software and imported into GeneSpring GX 10 (Agilent). […]

With `N.N.[Cl][Pt][Cl]` [cisplatin], the “PCSK9 gene expression (real-time PCR)” value in assay [1] (10 μM cisplatin, 8, 16 and 24 hours) is “decreased at 8 hours but increased at 16 and 24 hours”. Moreover, the “DHRS2 gene expression (real-time PCR)” value in assay [1] (10 μM cisplatin, 16 and 24 hours) is “down-regulation”. In assay [2], the “fold increase of IC50 in RNAi cells compared with control cells” value is 2.6 fold. In addition, the “number of genes upregulated or downregulated more than two-fold vs 0 hour in both groups of cells” value in assay [3] (8 hours) worked out at 6 genes; in assay [3] (16 hours), 19 genes; in assay [3] (24 hours), 47 genes.
